Assay [1] concerns SKBR-3 breast cancer cell line. The assay can be described thus: MTT assay, SKBR-3. Format: cell-based. To be noted: Homo sapiens, SK-BR-3; SKBR-3, 24 h treatment (21 h + 3 h MTT); read-out: IC50, cell viability (MTT). Here is the method: (§1) The human breast cancer cell lines SKBR-3 and paclitaxel-resistant SKBR-3 were kindly provided by Marc St. George (University of Alberta, Canada). Both cell lines were grown in RPMI 1640 medium (GIBCO) with 10% fetal calf serum and 1 mM L-glutamine 1% penicillin/streptomycin mixture under a humidified atmosphere containing 5% CO2. Addition of 16.65 nM paclitaxel to the paclitaxel-resistant cell line is mandatory to keep the acquired resistance at the same efficiency level.
(§2) The human breast cancer cell lines SKBR-3 and paclitaxel-resistant SKBR-3 (1 × 10^4 cells per well) were seeded into 96-well plates. […] After 21 h incubation, 50 μL of MTT (1 mg/mL) solution was added and the plates were incubated for an additional 3 h. After centrifugation, supernatant was removed from each well and […] of dimethyl sulfoxide (DMSO) was added to dissolve the insoluble formazan crystals. The absorbance was measured at 570 nm and 690 nm subtracted as a background, using microplate reader. The data was plotted using GraphPad Prism 5.0 software. IC50 and statistical analysis (t-test) were calculated using the same software.
A general note: Tetrazolium dyes change colour on reduction, which living cells bring about.

Assay [2] concerns paclitaxel-resistant SKBR-3 breast cancer cell line. Put plainly: MTT assay, paclitaxel-resistant SKBR-3. The class given is cell-based. The settings on record: Homo sapiens, SK-BR-3, paclitaxel-resistant SKBR-3, 24 h treatment (21 h + 3 h MTT); read-out: IC50, cell viability (MTT). The protocol:
as §1, §2

Another assay deals with tubulin. The assay can be described thus: Microtubule assembly assay (turbidity). The class given is biochemical. The settings on record: 10 μM compound, tubulin 3 mg/mL, 37°C, turbidity at 340 nm. The protocol: The turbidity was recorded on 96-half area well plates by microplate reader at 340 nm as an indicator for microtubules formation. […] Tubulin at a concentration of 3mg/mL in tubulin buffer (80 mM PIPES pH 6.9, 2 mM MgCl2, 0.5 mM EGTA, 1 mM GTP, 10.2% glycerol) was kept at 4°C before being added to the wells and shifting to 37°C. The absorbance was measured using the kinetic absorbance mode. DMSO solutions of paclitaxel and colchicine (10 μM) were used as controls.

The target of assay [3] is Porcine brain tubulin (unfractionated). Put plainly: Tryptophan fluorescence quenching binding assay, porcine brain tubulin. The settings on record: dissociation constant, calculated.
Another assay addresses T1, βI,βI-tubulin (Homo sapiens, UniProt P07437).
T1 construct: made in house; host or cells: E. coli BL21 (DE3)
The assay can be described thus: Tryptophan fluorescence quenching binding assay, recombinant βI,βI-tubulin homodimer. The settings on record: dissociation constant, calculated. Here is the method: (§3) The protein sequence of human αI-tubulin is given by UniProtKB accession number Q71U36 (gene name TUBA1A), the protein sequence of human βI-tubulin is given by UniProtKB accession number P07437 (gene name TUBB) and that of human βIII-tubulin is given by UniProtKB accession number Q13509 (gene name TUBB3). The cloning work for αI- and βI-tubulin was performed and reported previously. For the βIII human tubulin protein, the sequence was converted into DNA sequences with codons optimized for production in Escherichia coli, and for purification purposes, a His-tag was added at the N-terminus. The βIII-tubulin gene was inserted into a pET15b vector between the XhoI and NdeI restriction sites. The correct sequence, insertion, and orientation of the tubulin constructs were verified by DNA sequencing. Recombinant proteins were expressed in E. coli BL21 (DE3) host cells in LB medium supplemented with 100 μg/mL ampicillin. The cultures were grown at 37°C until an OD600 = 0.8 was reached, and the cells were induced with 1.0 mM isopropyl b-D-1-thiogalactopyranoside (IPTG) for 18 h at 25°C. After induction, the cells were harvested by centrifugation (6000 × g for 20 min at 4°C in SLC-6000 evolution sorvall rotor). The three variants of the tubulin protein were isolated from the inclusion bodies. […]

The target in a further assay is T2, αI,βI-tubulin (Homo sapiens, UniProt P07437+Q71U36).
T2 construct: made in house; host or cells: E. coli BL21 (DE3)
T2 sequence (Q71U36 whole entry): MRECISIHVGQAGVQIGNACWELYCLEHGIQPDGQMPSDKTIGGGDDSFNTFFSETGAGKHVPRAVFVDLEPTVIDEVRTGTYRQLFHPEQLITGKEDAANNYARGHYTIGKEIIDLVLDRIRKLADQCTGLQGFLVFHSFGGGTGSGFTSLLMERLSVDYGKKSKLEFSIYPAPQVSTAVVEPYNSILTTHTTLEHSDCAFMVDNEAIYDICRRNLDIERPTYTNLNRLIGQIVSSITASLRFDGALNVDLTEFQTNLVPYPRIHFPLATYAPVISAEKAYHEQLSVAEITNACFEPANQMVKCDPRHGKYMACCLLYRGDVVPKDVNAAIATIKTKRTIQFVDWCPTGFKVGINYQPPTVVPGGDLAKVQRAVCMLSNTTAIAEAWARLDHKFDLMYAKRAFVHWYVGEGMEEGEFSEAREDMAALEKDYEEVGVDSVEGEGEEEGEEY
T2 sequence (P07437 whole entry): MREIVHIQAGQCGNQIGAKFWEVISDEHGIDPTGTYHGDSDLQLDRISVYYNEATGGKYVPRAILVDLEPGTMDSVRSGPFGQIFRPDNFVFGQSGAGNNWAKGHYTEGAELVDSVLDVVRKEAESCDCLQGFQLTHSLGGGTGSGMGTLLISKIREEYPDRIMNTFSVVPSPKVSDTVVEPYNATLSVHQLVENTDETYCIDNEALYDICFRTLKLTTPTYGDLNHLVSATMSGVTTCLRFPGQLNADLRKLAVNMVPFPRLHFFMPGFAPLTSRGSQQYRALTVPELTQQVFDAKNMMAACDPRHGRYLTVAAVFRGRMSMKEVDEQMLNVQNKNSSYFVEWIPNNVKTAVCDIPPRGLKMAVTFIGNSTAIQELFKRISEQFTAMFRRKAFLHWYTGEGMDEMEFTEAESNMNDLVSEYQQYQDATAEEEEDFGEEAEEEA
Put plainly: Tryptophan fluorescence quenching binding assay, recombinant αI,βI-tubulin heterodimer. To be noted: dissociation constant, calculated. The protocol:
as §3

Another assay deals with T3, αI,βIII-tubulin (Homo sapiens, UniProt Q13509+Q71U36).
T3 construct: His-tag (N); made in house; host or cells: E. coli BL21 (DE3)
T3 sequence (Q71U36 whole entry): as the sequence (Q71U36 whole entry) above
T3 sequence (Q13509 whole entry): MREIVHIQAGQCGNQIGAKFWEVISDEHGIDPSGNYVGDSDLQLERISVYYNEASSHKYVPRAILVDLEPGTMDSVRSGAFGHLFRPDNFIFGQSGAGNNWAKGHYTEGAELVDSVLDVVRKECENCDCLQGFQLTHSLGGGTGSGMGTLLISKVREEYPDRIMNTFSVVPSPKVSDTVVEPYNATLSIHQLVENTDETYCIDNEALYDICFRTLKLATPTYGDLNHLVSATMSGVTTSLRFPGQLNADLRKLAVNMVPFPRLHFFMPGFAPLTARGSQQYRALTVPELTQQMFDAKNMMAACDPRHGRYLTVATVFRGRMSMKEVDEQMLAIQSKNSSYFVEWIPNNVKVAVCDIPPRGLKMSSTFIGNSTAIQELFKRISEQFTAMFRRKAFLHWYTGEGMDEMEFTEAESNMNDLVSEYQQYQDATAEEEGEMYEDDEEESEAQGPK
The assay can be described thus: Tryptophan fluorescence quenching binding assay, recombinant αI,βIII-tubulin heterodimer. To be noted: dissociation constant, calculated. The protocol:
as §3

SMILES strings stand for the structures.

T1 sequence (P07437 whole entry): as the sequence (P07437 whole entry) above

By IC50 is commonly meant the concentration at which inhibition is half-maximal. Regarding `COc1ccc2c(c1OC)C(=O)O/C2=C\c1ccc2c(c1)OCO2` [Compound 8, (Z)-3-(benzo[d][1,3]dioxol-5-ylmethylene)-6,7-dimethoxyisobenzofuran-1(3H)-one], the IC50 in assay [1] was roughly 40 µM; in assay [2], roughly 64 µM. Moreover, in the assay with tubulin, the “Effect on MT polymerization” value was “destabilize MT”.
One may read the Kd as a measure of binding affinity in units of concentration. With `COc1ccc2c(c1OC)C(=O)O[C@@H]2[C@H]1c2c(cc3c(c2OC)OCO3)CCN1C` [Noscapine], the Kd in assay [3] was 265 µM; at βI,βI-tubulin, 426 µM; on αI,βI-tubulin it was 293 µM; on αI,βIII-tubulin, 289 µM. Besides, the IC50 in assay [1] and in assay [2] was roughly 100 µM in each case. Also, in the assay with tubulin, the “Effect on MT polymerization” value is “stabilize MT”.

The values above are taken from publication PMC5130025, “A new antiproliferative noscapine analogue: chemical synthesis and biological evaluation” (Oncotarget, 2016).
